Data on 6 compounds can be found in paper PMC11474946, “Role of DNA Double-Strand Break Formation in Gyrase Inhibitor-Mediated Killing of Nonreplicating Persistent Mycobacterium tuberculosis in Caseum” (ACS Infectious Diseases, 2024).

The experiment has as its target T1, M. tuberculosis gyrase (MTB DNA gyrase) (Mycobacterium tuberculosis, UniProt P9WG45+P9WG47).
T1 construct: gene gyrA
Put plainly: DNA supercoiling inhibition, relaxed pBR322, agarose gel. Format: biochemical.

Read-outs that look alike come from different tables or passages of the source.

T1 sequence (P9WG47 2-838): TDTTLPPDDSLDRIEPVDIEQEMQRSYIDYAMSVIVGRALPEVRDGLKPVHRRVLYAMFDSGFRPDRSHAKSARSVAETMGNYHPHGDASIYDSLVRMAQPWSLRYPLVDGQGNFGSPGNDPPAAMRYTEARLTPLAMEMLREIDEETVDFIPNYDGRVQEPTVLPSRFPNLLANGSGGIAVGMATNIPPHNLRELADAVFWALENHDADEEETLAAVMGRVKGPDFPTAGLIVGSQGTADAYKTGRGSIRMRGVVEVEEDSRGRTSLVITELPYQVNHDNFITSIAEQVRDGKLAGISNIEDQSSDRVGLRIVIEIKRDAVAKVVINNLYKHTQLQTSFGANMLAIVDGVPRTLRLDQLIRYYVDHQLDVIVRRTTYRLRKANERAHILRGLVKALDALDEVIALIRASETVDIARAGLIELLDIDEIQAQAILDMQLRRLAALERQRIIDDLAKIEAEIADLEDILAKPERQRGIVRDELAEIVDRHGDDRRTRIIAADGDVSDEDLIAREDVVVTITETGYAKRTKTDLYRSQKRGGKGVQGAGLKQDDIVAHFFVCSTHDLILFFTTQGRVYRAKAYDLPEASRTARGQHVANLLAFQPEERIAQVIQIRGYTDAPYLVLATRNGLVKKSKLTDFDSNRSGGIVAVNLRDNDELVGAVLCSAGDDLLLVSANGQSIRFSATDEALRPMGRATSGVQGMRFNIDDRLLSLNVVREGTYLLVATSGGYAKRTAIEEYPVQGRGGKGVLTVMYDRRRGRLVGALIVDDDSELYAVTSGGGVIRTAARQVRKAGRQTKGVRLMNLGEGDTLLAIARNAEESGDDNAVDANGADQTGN
T1 sequence (P9WG45 whole entry): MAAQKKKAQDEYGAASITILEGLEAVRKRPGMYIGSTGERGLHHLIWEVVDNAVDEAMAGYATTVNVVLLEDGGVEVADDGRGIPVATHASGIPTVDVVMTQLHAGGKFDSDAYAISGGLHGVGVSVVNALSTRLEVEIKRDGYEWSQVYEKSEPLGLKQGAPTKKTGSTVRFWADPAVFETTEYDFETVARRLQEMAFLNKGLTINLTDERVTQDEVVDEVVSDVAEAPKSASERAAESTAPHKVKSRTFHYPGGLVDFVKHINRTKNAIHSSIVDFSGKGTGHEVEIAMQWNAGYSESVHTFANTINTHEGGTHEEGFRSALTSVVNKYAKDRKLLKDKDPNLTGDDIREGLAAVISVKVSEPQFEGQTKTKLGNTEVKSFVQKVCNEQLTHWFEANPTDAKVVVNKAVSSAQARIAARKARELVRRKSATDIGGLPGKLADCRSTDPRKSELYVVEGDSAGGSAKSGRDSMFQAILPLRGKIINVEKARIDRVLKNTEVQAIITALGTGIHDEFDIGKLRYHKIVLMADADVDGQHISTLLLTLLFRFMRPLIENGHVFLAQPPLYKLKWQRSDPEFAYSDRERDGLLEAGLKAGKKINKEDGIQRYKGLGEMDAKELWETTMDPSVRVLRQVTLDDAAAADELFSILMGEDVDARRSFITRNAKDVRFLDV

Turning to `CCNC(=O)Nc1nc2cc(-c3cnc(C(C)(C)O)nc3)c(F)c([C@H]3CCCO3)c2[nH]1` [SPR719], the EC50 – broadly, the concentration needed to bring the measured effect to its halfway point – is 300 nM. Regarding `COc1c(N2CCNC(C)C2)c(F)cc2c(=O)c(C(=O)O)cn(C3CC3)c12` (stereo not drawn) [Gatifloxacin], the concentration giving a half-maximal response (EC50) is 5000 nM. Same read-out and setting: the figure for `C[C@H]1COc2c(N3CCN(C)CC3)c(F)cc3c(=O)c(C(=O)O)cn1c23` [Levofloxacin] is 10000 nM; for `N[C@@H]1CN(c2c(F)cc3c(=O)c(C(=O)O)cn([C@@H]4C[C@@H]4F)c3c2Cl)CC12CC2` [Sitafloxacin] it is 1000 nM. Under “37 °C, 30 min, relaxed pBR322”, EC/11716 returned an EC50 of 100 nM. Compound `Nc1nc(-n2cc(C(=O)O)c(=O)c3cc(F)c(N4CC(O)C4)c(Cl)c32)c(F)cc1F` [Delafloxacin] had a 50% effective concentration (EC50) of 23000 nM.
